Assay results taken from article PMC9611727, “Optimization of a Novel Mandelamide-Derived Pyrrolopyrimidine Series of PERK Inhibitors” (Pharmaceutics, 2022).

Assays:
Test in all cases: scanMAX kinase panel
Assay type in all cases: binding
Conditions in all cases: read-out: % Control; for remaining binding at 1 µM: 1000 nM
PIK4CB = biological target: T1, PIK4CB (Homo sapiens, UniProt Q9UBF8)
T1 construct: purchased DiscoverX scanMAX
Text: (§1) Supplemental Table S2. scanMAXSM Kinome Assay Results. Complete tabulated data of all 468 kinases from the panel, including
(§2) 403 wild-type and 65 mutant isoforms. […] Cmpd 11 and Cmpd 24

PIK3CA(E542K) = biological target: T2, PIK3CA(E542K) (Homo sapiens, UniProt P42336, E542K)
T2 construct: purchased DiscoverX scanMAX
T2 sequence (P42336 whole entry E542K): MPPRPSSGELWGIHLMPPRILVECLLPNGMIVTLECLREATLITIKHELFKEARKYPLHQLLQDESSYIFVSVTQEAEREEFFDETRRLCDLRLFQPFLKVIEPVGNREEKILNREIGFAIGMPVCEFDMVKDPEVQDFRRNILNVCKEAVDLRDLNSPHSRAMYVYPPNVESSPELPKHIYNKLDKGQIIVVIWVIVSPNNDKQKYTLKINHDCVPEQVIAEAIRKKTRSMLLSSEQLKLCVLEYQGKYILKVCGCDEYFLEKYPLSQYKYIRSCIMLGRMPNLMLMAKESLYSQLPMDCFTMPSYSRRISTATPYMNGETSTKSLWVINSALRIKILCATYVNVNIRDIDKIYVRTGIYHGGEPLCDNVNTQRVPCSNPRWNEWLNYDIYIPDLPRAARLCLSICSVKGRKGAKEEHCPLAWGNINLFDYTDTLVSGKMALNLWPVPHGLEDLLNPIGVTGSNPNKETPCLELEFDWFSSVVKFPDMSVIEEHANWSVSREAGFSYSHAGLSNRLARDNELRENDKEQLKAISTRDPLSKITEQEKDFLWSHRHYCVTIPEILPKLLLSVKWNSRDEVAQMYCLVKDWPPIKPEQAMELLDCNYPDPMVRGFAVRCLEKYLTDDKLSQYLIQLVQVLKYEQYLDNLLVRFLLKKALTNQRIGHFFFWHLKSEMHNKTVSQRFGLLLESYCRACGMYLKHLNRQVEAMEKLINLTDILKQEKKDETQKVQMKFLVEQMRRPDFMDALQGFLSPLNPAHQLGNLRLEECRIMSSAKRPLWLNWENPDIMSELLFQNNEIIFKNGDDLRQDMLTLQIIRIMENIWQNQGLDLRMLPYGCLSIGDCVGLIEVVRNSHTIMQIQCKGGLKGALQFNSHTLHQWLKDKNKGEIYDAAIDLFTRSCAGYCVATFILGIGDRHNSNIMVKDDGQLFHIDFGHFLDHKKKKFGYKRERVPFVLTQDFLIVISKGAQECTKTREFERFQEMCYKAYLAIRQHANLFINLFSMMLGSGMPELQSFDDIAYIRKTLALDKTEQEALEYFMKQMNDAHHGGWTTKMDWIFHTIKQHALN
Text: as §1, §2

AXL = biological target: T3, AXL (Homo sapiens, UniProt P30530)
T3 construct: purchased DiscoverX scanMAX
T3 sequence (P30530 26-894): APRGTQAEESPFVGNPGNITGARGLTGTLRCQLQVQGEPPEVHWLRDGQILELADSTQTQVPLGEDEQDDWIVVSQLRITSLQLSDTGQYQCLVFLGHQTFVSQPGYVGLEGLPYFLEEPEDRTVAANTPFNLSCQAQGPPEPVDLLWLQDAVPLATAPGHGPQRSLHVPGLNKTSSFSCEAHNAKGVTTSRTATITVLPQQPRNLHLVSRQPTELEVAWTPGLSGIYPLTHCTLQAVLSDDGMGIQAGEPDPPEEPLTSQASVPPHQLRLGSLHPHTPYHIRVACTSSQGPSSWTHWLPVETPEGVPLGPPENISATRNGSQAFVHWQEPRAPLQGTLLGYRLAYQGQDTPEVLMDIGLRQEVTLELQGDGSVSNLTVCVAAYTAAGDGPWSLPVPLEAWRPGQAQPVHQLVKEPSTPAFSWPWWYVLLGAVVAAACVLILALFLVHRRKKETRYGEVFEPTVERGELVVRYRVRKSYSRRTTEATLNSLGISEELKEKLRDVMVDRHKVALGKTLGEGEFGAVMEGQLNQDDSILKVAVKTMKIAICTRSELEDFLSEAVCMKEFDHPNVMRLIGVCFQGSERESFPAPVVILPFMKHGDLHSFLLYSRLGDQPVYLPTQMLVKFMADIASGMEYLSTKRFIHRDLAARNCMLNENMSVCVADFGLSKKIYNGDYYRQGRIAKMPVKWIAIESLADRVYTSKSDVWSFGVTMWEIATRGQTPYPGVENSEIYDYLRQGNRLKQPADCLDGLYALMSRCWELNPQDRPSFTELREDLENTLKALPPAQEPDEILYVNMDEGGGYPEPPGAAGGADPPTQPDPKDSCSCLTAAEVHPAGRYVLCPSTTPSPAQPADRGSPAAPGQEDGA
Text: as §1, §2

FLT3(N841I) = biological target: T4, FLT3(N841I) (Homo sapiens, UniProt P36888, N841I)
T4 construct: purchased DiscoverX scanMAX
T4 sequence (P36888 27-993 N841I): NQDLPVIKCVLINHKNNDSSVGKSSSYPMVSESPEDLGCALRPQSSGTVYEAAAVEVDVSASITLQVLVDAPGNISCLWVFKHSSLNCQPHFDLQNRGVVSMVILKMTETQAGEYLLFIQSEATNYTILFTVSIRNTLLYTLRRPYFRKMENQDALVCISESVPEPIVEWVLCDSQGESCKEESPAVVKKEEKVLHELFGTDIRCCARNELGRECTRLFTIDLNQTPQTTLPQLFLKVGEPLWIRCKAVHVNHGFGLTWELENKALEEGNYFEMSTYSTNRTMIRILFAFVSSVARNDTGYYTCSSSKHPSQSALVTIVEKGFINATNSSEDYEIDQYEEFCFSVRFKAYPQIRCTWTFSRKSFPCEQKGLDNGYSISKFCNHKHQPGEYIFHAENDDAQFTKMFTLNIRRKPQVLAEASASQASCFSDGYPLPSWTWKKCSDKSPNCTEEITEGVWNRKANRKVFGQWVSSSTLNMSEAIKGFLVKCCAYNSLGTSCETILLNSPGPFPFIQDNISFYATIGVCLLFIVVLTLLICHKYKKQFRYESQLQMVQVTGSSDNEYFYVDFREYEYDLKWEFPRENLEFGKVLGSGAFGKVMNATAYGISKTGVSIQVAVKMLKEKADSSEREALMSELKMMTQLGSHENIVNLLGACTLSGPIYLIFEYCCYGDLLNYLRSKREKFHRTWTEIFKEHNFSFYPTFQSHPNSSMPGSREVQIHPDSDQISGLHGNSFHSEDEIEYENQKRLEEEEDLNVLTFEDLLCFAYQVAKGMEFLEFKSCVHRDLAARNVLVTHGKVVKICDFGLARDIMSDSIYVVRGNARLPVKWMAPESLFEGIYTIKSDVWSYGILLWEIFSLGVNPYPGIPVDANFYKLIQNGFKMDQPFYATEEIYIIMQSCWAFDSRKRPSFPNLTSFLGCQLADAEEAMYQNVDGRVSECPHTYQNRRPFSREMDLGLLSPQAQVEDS
Text: as §1, §2

PIK3C2B = biological target: T5, PIK3C2B (Homo sapiens, UniProt O00750)
T5 construct: purchased DiscoverX scanMAX
T5 sequence (O00750 whole entry): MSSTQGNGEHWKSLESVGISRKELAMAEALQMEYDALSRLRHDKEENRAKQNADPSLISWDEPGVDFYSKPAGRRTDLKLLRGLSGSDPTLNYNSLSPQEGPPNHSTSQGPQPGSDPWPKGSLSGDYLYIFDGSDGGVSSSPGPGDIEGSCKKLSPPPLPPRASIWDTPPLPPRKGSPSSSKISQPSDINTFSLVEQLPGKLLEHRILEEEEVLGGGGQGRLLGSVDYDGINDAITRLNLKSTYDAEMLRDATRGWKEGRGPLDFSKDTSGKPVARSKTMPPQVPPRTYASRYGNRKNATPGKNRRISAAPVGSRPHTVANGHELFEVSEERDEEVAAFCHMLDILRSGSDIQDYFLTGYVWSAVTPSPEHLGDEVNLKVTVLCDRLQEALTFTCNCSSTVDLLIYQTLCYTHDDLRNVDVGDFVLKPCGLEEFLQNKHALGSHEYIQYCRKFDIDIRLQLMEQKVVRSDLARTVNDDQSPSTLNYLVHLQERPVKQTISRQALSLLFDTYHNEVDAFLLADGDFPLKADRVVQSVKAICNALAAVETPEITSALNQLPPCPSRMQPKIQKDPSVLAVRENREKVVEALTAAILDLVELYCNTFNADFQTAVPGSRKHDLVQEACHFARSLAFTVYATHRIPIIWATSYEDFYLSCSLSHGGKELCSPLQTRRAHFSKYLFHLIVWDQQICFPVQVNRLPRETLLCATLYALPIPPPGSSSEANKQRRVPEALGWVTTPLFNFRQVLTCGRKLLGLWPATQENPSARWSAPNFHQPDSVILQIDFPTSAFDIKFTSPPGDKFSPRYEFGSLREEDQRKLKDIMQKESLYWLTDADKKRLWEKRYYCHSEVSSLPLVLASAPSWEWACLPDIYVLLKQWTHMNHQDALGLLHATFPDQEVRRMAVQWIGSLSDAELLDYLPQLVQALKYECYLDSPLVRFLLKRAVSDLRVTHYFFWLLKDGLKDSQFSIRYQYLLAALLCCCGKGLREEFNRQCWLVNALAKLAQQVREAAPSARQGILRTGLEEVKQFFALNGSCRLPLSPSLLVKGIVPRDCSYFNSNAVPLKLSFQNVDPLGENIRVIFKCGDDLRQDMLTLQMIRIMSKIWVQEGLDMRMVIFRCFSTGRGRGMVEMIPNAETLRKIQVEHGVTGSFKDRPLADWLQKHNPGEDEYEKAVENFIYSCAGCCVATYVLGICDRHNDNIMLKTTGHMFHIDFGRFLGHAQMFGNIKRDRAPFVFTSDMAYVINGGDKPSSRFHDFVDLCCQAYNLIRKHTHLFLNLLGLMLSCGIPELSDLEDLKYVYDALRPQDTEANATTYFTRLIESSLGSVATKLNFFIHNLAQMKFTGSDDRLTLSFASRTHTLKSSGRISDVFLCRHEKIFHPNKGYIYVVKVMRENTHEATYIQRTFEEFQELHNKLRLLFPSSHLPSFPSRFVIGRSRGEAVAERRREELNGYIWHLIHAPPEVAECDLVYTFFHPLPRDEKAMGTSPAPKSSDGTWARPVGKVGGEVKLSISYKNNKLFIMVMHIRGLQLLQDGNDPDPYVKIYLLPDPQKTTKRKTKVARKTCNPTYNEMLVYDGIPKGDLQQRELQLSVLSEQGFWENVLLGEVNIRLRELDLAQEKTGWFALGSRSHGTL
Text: as §1, §2

LTK = biological target: T6, LTK (Homo sapiens, UniProt P29376)
T6 construct: purchased DiscoverX scanMAX
T6 sequence (P29376 17-864): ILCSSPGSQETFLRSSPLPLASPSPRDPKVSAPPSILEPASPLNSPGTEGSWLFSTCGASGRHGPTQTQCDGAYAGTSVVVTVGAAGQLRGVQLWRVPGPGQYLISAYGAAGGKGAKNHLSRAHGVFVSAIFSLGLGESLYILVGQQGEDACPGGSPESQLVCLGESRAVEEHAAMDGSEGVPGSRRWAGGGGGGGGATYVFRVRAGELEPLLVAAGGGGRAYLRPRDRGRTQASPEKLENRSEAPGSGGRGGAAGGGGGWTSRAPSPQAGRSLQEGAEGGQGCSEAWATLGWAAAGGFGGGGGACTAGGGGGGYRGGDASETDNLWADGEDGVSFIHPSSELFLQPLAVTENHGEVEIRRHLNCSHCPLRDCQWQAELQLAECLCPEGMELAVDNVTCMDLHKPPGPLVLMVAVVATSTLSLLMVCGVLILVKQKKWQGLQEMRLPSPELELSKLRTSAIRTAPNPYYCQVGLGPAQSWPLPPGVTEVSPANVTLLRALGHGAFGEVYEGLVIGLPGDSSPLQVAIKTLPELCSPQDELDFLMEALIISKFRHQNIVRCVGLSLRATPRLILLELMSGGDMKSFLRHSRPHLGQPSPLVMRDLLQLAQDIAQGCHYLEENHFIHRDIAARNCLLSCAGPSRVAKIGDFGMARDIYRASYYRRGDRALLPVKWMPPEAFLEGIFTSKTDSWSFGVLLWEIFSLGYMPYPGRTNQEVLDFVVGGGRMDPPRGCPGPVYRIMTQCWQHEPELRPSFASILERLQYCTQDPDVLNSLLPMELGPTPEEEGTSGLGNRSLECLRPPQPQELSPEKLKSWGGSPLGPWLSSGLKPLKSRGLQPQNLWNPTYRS
Text: as §1, §2

T1 sequence (Q9UBF8 whole entry): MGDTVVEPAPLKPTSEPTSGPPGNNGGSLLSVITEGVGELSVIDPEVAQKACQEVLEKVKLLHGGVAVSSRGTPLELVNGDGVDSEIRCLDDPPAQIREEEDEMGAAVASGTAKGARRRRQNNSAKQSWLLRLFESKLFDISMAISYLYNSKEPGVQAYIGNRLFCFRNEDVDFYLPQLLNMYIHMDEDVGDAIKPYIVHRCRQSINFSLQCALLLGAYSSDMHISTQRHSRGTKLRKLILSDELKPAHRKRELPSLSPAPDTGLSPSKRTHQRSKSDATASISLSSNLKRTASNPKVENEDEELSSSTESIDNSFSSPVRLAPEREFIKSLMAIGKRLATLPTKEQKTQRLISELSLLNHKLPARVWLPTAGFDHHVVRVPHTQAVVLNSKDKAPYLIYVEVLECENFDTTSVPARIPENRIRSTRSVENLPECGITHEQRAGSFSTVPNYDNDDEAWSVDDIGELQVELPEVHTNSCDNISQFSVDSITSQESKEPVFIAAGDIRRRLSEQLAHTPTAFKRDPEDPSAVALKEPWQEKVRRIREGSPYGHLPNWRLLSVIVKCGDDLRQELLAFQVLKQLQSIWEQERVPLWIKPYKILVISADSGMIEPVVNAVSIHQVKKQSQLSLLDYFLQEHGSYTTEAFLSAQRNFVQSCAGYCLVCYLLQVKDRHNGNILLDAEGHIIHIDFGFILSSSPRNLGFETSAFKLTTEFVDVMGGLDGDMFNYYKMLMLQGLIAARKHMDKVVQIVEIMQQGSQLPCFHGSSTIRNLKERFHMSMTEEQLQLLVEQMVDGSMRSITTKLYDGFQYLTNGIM

| Compound | remaining binding at 1 µM (PIK4CB) [%] | remaining binding at 1 µM (PIK3CA(E542K)) [%] | remaining binding at 1 µM (AXL) [%] | remaining binding at 1 µM (FLT3(N841I)) [%] | remaining binding at 1 µM (PIK3C2B) [%] | remaining binding at 1 µM (LTK) [%] | remaining binding at 0.1 µM (PIK4CB; 100 nM) [%] | remaining binding at 0.1 µM (PIK3CA(E542K); 100 nM) [%] | remaining binding at 0.1 µM (AXL; 100 nM) [%] | remaining binding at 0.1 µM (FLT3(N841I); 100 nM) [%] | remaining binding at 0.1 µM (PIK3C2B; 100 nM) [%] | remaining binding at 0.1 µM (LTK; 100 nM) [%] |
| --- | --- | --- | --- | --- | --- | --- | --- | --- | --- | --- | --- | --- |
| Cc1cc(NC(=O)[C@H](O)c2cccc(F)c2)ccc1-c1cn(C)c2ncnc(N)c12 [Compound 11, (R)-N-(4-(4-amino-7-methyl-7H-pyrrolo[2,3-d]pyrimidin-5-yl)-3-methylphenyl)-2-(3-fluorophenyl)-2-hydroxy acetamide] | 84 | 89 | 56 | 0.3 | 27 | 35 | – | – | – | – | – | – |
| Cc1nc(N)c2c(-c3ccc(NC(=O)[C@H](O)c4cccc(C(F)(F)F)c4)cc3C)cn(C)c2n1 [Compound 26] | 4.3 | 91 | 0.7 | 0 | 78 | 22 | 93 | 100 | 99 | 34 | 100 | 98 |
| Cc1nc(N)c2c(-c3ccc(NC(=O)[C@H](O)c4cccc(F)c4)cc3C)cn(C)c2n1 [Compound 24] | 28 | 0.7 | 100 | 100 | 100 | 100 | – | – | – | – | – | – |
